Patent publication US20150239831A1, “INHIBITORS OF CENTRAL NERVOUS SYSTEM VASOACTIVE INHIBITORY PEPTIDE RECEPTOR 2” (The Trustees Of Columbia University In The City Of New York, priority 2012, published 2015)

Assays:
Assay type in all cases: cell-based
Set-up in all cases: expressed in transfected cells; host or cells: HEK293 cells transfected with VIPR2 in pCDNA3.1 (as described)
[1] = target: T1, VIPR2 (Homo sapiens, UniProt P41587); experiment: % Activity: inhibition of VIP-induced cAMP elevation and β-arrestin recruitment (Table 2)
T1 sequence (P41587 24-438): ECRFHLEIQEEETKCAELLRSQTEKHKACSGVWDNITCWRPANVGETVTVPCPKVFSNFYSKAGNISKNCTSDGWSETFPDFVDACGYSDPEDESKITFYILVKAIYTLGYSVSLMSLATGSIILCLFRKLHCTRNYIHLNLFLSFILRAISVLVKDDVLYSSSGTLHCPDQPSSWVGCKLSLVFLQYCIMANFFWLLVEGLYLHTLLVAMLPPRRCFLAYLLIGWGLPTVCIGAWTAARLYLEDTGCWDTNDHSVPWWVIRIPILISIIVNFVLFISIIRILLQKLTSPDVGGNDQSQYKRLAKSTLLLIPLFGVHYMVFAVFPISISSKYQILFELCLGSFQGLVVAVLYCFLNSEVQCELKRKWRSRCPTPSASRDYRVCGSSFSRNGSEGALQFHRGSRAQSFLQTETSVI
In short: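 Recruitment of β-arrestin measured by β-gal fragment complementation luminescence in HEK293 cells co-expressing VIPR2-ProLink and β-arrestin2-EA after 2 h compound at 37° C. VIP-driven cAMP rise in stable hVIPR2 HEK293 cells measured by HTRF after 30 min with inhibitor and VIP.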

[2] = target: T1, VIPR2; experiment: Inhibition of VIP-induced β-arrestin recruitment (% Activity Arrestin); settings: Batch 1
In short: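 Read-out is β-gal fragment complementation (luminescence) between ProLink-hVIPR2 and EA-β-arrestin2 in transiently transfected HEK293 cells. Cells rested overnight, then exposed to inhibitor 2 h at 37 °C before detection reagent (5 min–1 h, room temperature); values are % activity against VIP-driven recruitment.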

[3] = target: T1, VIPR2; experiment: Inhibition of VIP-induced cAMP elevation (% Activity cAMP); settings: Batch 1
In short: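 HEK293 cells stably transfected with human VIPR2 were incubated with inhibitor and VIP for 30 min, then cAMP was detected by HTRF after at least 1 h at room temperature. The 665/620 nm ratio ×10,000 was calculated.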

% Activity [1] [%] | inhibition at 0.5 µM [2] [%] | inhibition at 1 µM [2] [%] | inhibition at 5 µM [2] [%] | inhibition at 0.5 µM [3] [%] | inhibition at 1 µM [3] [%] | inhibition at 5 µM [3] [%] | SMILES
91.75 | 38.5 | 59.5 | 90.4 | 27.3 | 43.6 | 93.1 | N#Cc1ccc(S(=O)(=O)NC[C@@H](O)C[C@@H](Cc2ccccc2)C(=O)N[C@H]2c3ccccc3C[C@H]2O)cc1 [C]
94.1 | 62.8 | 80.4 | 90 | 42.2 | 63.5 | 98.2 | Cc1ccc(S(=O)(=O)NC[C@@H](O)C[C@@H](Cc2ccccc2)C(=O)N[C@H]2c3ccccc3C[C@H]2O)cc1 [I]
92.35 | 58.3 | 78 | 88.7 | 38.6 | 61.1 | 96 | CC(=O)c1ccc(S(=O)(=O)NC[C@@H](O)C[C@@H](Cc2ccccc2)C(=O)N[C@H]2c3ccccc3C[C@H]2O)cc1 [K]
91.6 | 54.1 | 76.7 | 89.4 | 33.9 | 45.9 | 93.8 | COc1ccc(S(=O)(=O)NC[C@@H](O)C[C@@H](Cc2ccccc2)C(=O)N[C@H]2c3ccccc3C[C@H]2O)cc1 [E]
95.7 | 58.1 | 83 | 92.9 | 42 | 63.1 | 98.5 | O=C(N[C@H]1c2ccccc2C[C@H]1O)[C@H](Cc1ccccc1)C[C@H](O)CNS(=O)(=O)c1ccc(C(F)(F)F)cc1 [F]
92.95 | 31.5 | 63.1 | 87.7 | 36.5 | 44.2 | 98.2 | CC(C)c1ccc(S(=O)(=O)NC[C@@H](O)C[C@@H](Cc2ccccc2)C(=O)N[C@H]2c3ccccc3C[C@H]2O)cc1 [Compound A10]
